# Laboratory results from patent US9408393B2, “Bismuth-thiols as antiseptics for agricultural, industrial and other uses” (Microbion Corporation, priority 2010, dated 2016).
# Experiments:
# Enteromorpha spores = test: Inhibition of algae spore germination; details: up to ten micrograms per ml
# Procedure: The effect of three bismuth containing compounds, bismuth dimercaprol (BisBAL), bismuth dimercaptotoluene (BisTOL), and bismuth ethanedithiol (BisEDT), on the settlement of algae was determined, particularly the ability of each compound to inhibit germination of Enteromorpha spores. Each compound was tested at 0.001, 0.01, 0.1, 1.0, and 10.0 μg/ml.
# barnacle larvae = test: Barnacle larvae settlement inhibition
# Procedure: Compounds, BisBAL and BisTOL were included in an assay to determine the inhibitory activity of each compound on barnacle larvae settlement behavior. Methods were performed according to techniques practiced in the art. […] In another experiment, BisEDT was dissolved either directly in natural seawater or first dissolved in DMSO and then diluted in natural seawater. The EC50 measurements were not statistically different.
# marine diatom = test: Marine diatom settlement inhibition; details: 0.1 μg/ml
# Procedure: The effect of three bismuth containing compounds, bismuth dimercaprol (BisBAL), bismuth dimercaptotoluene (BisTOL), and bismuth ethanedithiol (BisEDT), on growth of a marine diatom was determined according to techniques practiced in the art. Settlement of marine diatoms (diatoms per fov) was inhibited by increasing concentrations of each of the three compounds (0.001, 0.01, 0.1, 1.0, and 10.0 μg/ml). […] 1987; 41:435-64; Domenico et al., Antimicrob Agents and Chemother. 2001; 45(5):1417-21; Halwani et al., Int J Pharm. 2008; 358:278-84; Johnson et al., Clin Infect Dis. 2007; 45(4):409-415. ADA Council on Scientific Affairs. Direct and indirect restorative materials. JADA 2003; 134:463-72. Alliance for Coastal Technologies (ACT). 2004. Biofouling Prevention Technologies for Coastal Sensors/Sensor Platforms. University of Maryland Center of Environmental Science, Workshop Proceedings, November 2003. UMCES Technical Report Series No. TS-426-04-CBL, Solomons, M D. Athanassiadis et al., Aust Dent J 2007; 52:S64-82. Alt et al., Antimicrob Agents Chemother 2004; 48:4084-88. Bayston et al., Biomaterials 2009; 30:3167-73. Bernardo et al., JADA 2007; 138:775-783. Beytha et al., J Dent 2007; 35:201-206. Bohner et al., J Pharm Sci 1997; 86:565-72. Bruxton, Eng News 1908; 59,525; Chem. Abs., 2:2010. Bueno et al. Oral Surg Oral Med Oral Pathol Oral Radiol Endod 2009; 107:e65-9. […]
# V. alginolyticus = test: MIC against marine bacteria; format: cell-based; details: marine bacterium V. alginolyticus
# Procedure: (§1) This example describes the antimicrobial activity of bismuth containing compounds. The MIC values of three bismuth containing compounds, bismuth dimercaprol (BisBAL), bismuth dimercaptotoluene (BisTOL), and bismuth ethanedithiol (BisEDT), against three different marine bacteria were determined using methods routinely practiced by persons skilled in the art.
# H. marina = test: MIC against marine bacteria; format: cell-based; details: marine bacterium H. marina
# Procedure: as §1
# M. hydrocarbonoclasicus = test: MIC against marine bacteria; format: cell-based; details: marine bacterium M. hydrocarbonoclasicus
# Procedure: as §1
substance,measurement,setting,value
bismuth dimercaptotoluene [BisTOL],Effect on germination of algae spores,Enteromorpha spores,no inhibitory effect
same,EC50 (concentration at which 50% settlement inhibition occurs),barnacle larvae,15.4 ppm
same,Inhibition of marine diatom settlement,marine diatom,approximately 30%
same,MIC,V. alginolyticus,1 µg/mL
same,MIC,H. marina,7.2 µg/mL
same,MIC,M. hydrocarbonoclasicus,0.4 µg/mL
